Read-outs that look alike come from different tables or passages of the source.
Molecular target: GABARAP (Homo sapiens, UniProt O95166)
Format: binding
Design: CSP induced: unit not given here
Settings: for CSP: GABARAP:TH152 molar ratio 1:2

Chain of GABARAP (O95166 1-116): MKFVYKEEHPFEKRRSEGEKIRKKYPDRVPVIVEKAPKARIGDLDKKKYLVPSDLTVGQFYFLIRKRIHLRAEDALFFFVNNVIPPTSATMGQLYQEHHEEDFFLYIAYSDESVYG

## CCCCCCC(Sc1nc(Cl)cc(Nc2nc(-c3ccc(C(=O)O)cc3)cs2)n1)C(=O)O (centres unmarked) [compound 21]
F77 HN resonance, molar ratio TH152:GABARAP 0.125
  CSP induced: 0.00585
F77 HN resonance, molar ratio TH152:GABARAP 0.25
  CSP induced: 0.01072
F77 HN resonance, molar ratio TH152:GABARAP 0.5
  CSP induced: 0.01977
F77 HN resonance, molar ratio TH152:GABARAP 1
  CSP induced: 0.04412
F77 HN resonance, molar ratio TH152:GABARAP 2
  CSP induced: 0.07555
F77 HN resonance, molar ratio TH152:GABARAP 4
  CSP induced: 0.08937
GABARAP
  interaction in 2D NMR titration: interacted with TH152 via the LDS binding site
GABARAP residue A36
  CSP: 0.025 ppm
GABARAP residue A39
  CSP: 0.019 ppm
GABARAP residue A72
  CSP: 0.005 ppm
GABARAP residue A75
  CSP: 0.00571 ppm
GABARAP residue A108
  CSP: 0.038 ppm
GABARAP residue D27
  CSP: 0.012 ppm
GABARAP residue D43
  CSP: 0.019 ppm
GABARAP residue D45
  CSP: 0.052 ppm
GABARAP residue D54
  CSP: 0.019 ppm
GABARAP residue D74
  CSP: 0.004 ppm
GABARAP residue D102
  CSP: 0.027 ppm
GABARAP residue D111
  CSP: 0.080 ppm
GABARAP residue E7, estimated
  CSP: 0.005 ppm
GABARAP residue E8
  CSP: 0.010 ppm
GABARAP residue E12
  CSP: 0.005 ppm
GABARAP residue E17
  CSP: 0.025 ppm
GABARAP residue E19
  CSP: 0.021 ppm
GABARAP residue E34
  CSP: 0.056 ppm
GABARAP residue E73
  CSP: 0.015 ppm
GABARAP residue E97
  CSP: 0.019 ppm
GABARAP residue E100
  CSP: 0.010 ppm
GABARAP residue E101, estimated
  CSP: 0.015 ppm
GABARAP residue E112
  CSP: 0.029 ppm
GABARAP residue F3
  CSP: 0.007 ppm
GABARAP residue F11
  CSP: 0.00637 ppm
GABARAP residue F60
  CSP: 0.060 ppm
GABARAP residue F62
  CSP: 0.051 ppm
GABARAP residue F77
  CSP: 0.076 ppm
GABARAP residue F78
  CSP: 0.035 ppm
GABARAP residue F79
  CSP: 0.034 ppm
GABARAP residue F103
  CSP: 0.019 ppm
GABARAP residue F104
  CSP: 0.027 ppm
GABARAP residue G18
  CSP: 0.016 ppm
GABARAP residue G42
  CSP: 0.033 ppm
GABARAP residue G58
  CSP: 0.028 ppm
GABARAP residue G116
  CSP: 0.011 ppm
GABARAP residue H9, estimated
  CSP: 0.005 ppm
GABARAP residue H69
  CSP: 0.044 ppm
GABARAP residue H98
  CSP: 0.018 ppm
GABARAP residue H99
  CSP: 0.035 ppm
GABARAP residue I21
  CSP: 0.030 ppm
GABARAP residue I32
  CSP: 0.077 ppm
GABARAP residue I41
  CSP: 0.054 ppm
GABARAP residue I64
  CSP: 0.020 ppm
GABARAP residue I68
  CSP: 0.084 ppm
GABARAP residue I107
  CSP: 0.011 ppm
GABARAP residue K2
  CSP: 0.014 ppm
GABARAP residue K6, estimated
  CSP: 0.005 ppm
GABARAP residue K13
  CSP: 0.013 ppm
GABARAP residue K20
  CSP: 0.009 ppm
GABARAP residue K23
  CSP: 0.019 ppm
GABARAP residue K24
  CSP: 0.039 ppm
GABARAP residue K35
  CSP: 0.019 ppm
GABARAP residue K38
  CSP: 0.015 ppm
GABARAP residue K46
  CSP: 0.079 ppm
GABARAP residue K47
  CSP: 0.091 ppm
GABARAP residue K48
  CSP: 0.061 ppm
GABARAP residue K66
  CSP: 0.014 ppm
GABARAP residue L44
  CSP: 0.040 ppm
GABARAP residue L50
  CSP: 0.088 ppm
GABARAP residue L55
  CSP: 0.088 ppm
GABARAP residue L63
  CSP: 0.085 ppm
GABARAP residue L70
  CSP: 0.021 ppm
GABARAP residue L76
  CSP: 0.043 ppm
GABARAP residue L105
  CSP: 0.011 ppm
GABARAP residue M1
  CSP: 0.016 ppm
GABARAP residue N81
  CSP: 0.019 ppm
GABARAP residue P10, estimated
  CSP: 0.005 ppm
GABARAP residue P26, estimated
  CSP: 0.080 ppm
GABARAP residue P30, estimated
  CSP: 0.060 ppm
GABARAP residue P37, estimated
  CSP: 0.020 ppm
GABARAP residue P52, estimated
  CSP: 0.030 ppm
GABARAP residue Q59
  CSP: 0.033 ppm
GABARAP residue Q96
  CSP: 0.025 ppm
GABARAP residue R14, estimated
  CSP: 0.005 ppm
GABARAP residue R15, estimated
  CSP: 0.005 ppm
GABARAP residue R22
  CSP: 0.015 ppm
GABARAP residue R28
  CSP: 0.021 ppm
GABARAP residue R40
  CSP: 0.023 ppm
GABARAP residue R65
  CSP: 0.067 ppm
GABARAP residue R67
  CSP: 0.024 ppm
GABARAP residue R71
  CSP: 0.007 ppm
GABARAP residue S16
  CSP: 0.016 ppm
GABARAP residue S53
  CSP: 0.013 ppm
GABARAP residue S110
  CSP: 0.015 ppm
GABARAP residue S113
  CSP: 0.021 ppm
GABARAP residue T56
  CSP: 0.032 ppm
GABARAP residue V29
  CSP: 0.058 ppm
GABARAP residue V31
  CSP: 0.082 ppm
GABARAP residue V33
  CSP: 0.031 ppm
GABARAP residue V51
  CSP: 0.069 ppm
GABARAP residue V57
  CSP: 0.065 ppm
GABARAP residue V80
  CSP: 0.037 ppm
GABARAP residue V114
  CSP: 0.00433 ppm
GABARAP residue Y25
  CSP: 0.070 ppm
GABARAP residue Y49
  CSP: 0.168 ppm
GABARAP residue Y61
  CSP: 0.053 ppm
GABARAP residue Y106
  CSP: 0.025 ppm
GABARAP residue Y109
  CSP: 0.022 ppm
GABARAP residue Y115
  CSP: 0.00181 ppm
K46 HN resonance, molar ratio TH152:GABARAP 0.125
  CSP induced: 0.0126
K46 HN resonance, molar ratio TH152:GABARAP 0.25
  CSP induced: 0.02165
K46 HN resonance, molar ratio TH152:GABARAP 0.5
  CSP induced: 0.03932
K46 HN resonance, molar ratio TH152:GABARAP 1
  CSP induced: 0.07004
K46 HN resonance, molar ratio TH152:GABARAP 2
  CSP induced: 0.07915
K46 HN resonance, molar ratio TH152:GABARAP 4
  CSP induced: 0.08104
Y25 HN resonance, molar ratio TH152:GABARAP 0.125
  CSP induced: 0.00667
Y25 HN resonance, molar ratio TH152:GABARAP 0.25
  CSP induced: 0.01133
Y25 HN resonance, molar ratio TH152:GABARAP 0.5
  CSP induced: 0.01934
Y25 HN resonance, molar ratio TH152:GABARAP 1
  CSP induced: 0.03193
Y25 HN resonance, molar ratio TH152:GABARAP 2
  CSP induced: 0.06979
Y25 HN resonance, molar ratio TH152:GABARAP 4
  CSP induced: 0.08466

— paper PMC11589570, “Critical assessment of LC3/GABARAP ligands used for degrader development and ligandability of LC3/GABARAP binding pockets” (Nature Communications, 2024)
